According to US12233161B1, “Lipids and lipid nanoparticle formulations” (LONGUIDE BIOPHARMA CORPORATION, priority 2024, dated 2025):

Key:
mice = test: In vivo delivery of FLuc-mRNA lipid nanoparticles in mice, in vivo imaging (IVIS)
In short: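 Mice (n=3) received about 75 μL FLuc-mRNA LNP per mouse intramuscularly (rectus femoris), intravenously (tail vein), intraperitoneally or subcutaneously (back). After injection, D-luciferin (200 μL, 15 mg/mL) was given i.p. 10-15 min before IVIS imaging.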

[1] = Particle size and PDI of nucleic acid lipid nanoparticle preparations by dynamic light scattering; format: physicochemical
In short: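 LNP solution (about 0.04 mg/mL mRNA before dilution) was diluted in ultrapure water and mixed by gentle pipetting. Particle size and PDI were then measured by dynamic light scattering.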

[2] = Potential characterization of nucleic acid lipid nanoparticle preparations; format: physicochemical
Description: 20 μL of the nucleic acid lipid nanoparticle solution (containing about 0.04 mg/mL mRNA) was taken and added with 780 μL of ultrapure water, used a pipette tip to gently blow and mix, and the potential of the nanopreparation was detected by Malvern particle sizer (model ZEN3700).
27.5 μL nucleic acid lipid nanoparticle solution (containing about 0.04 mg/mL mRNA) was taken and added with 200 μL ultrapure water. A pipette tip was used to gently blow the sample and mix well. The particle size of the nanopreparation was detected by Malvern Dynamic Light Scattering Instrument (Malvern Instruments Ltd., ZEN3700, UK). After the detection, the sample was recovered to an EP tube, and 600 μL of ultrapure water was added, gently blown with a pipette tip, and the potential of the nanopreparation was measured by a Malvern particle size meter.

[3] = DMG-PEG2000:DSPC:Chol:Lipid 1.00:4.00:60.00:35.00, N/P 18, IV, liver
[4] = DMG-PEG2000:DSPC:Chol:Lipid 1.00:4.00:60.00:35.00, N/P 18, IV, lung
[5] = DMG-PEG2000:DSPC:Chol:Lipid 1.00:4.00:60.00:35.00, N/P 18, IV, spleen
[6] = DMG-PEG2000:DSPC:Chol:Lipid 2.50:16.00:16.50:65.00, N/P 18, IV, liver
[7] = DMG-PEG2000:DSPC:Chol:Lipid 2.50:16.00:16.50:65.00, N/P 18, IV, lung
[8] = DMG-PEG2000:DSPC:Chol:Lipid 2.50:16.00:16.50:65.00, N/P 18, IV, spleen
[9] = mRNA LNP, 1.00:4.00:30.00:65.00, N/P 30, IV, liver
[10] = mRNA LNP, 1.00:4.00:30.00:65.00, N/P 30, IV, lung
[11] = mRNA LNP, 1.00:4.00:30.00:65.00, N/P 30, IV, spleen
[12] = DMG-PEG2000:DSPC:Chol:Lipid 1.00:4.00:60.00:35.00, N/P 18, mRNA LNP
[13] = DMG-PEG2000:DSPC:Chol:Lipid 1.71:12.98:45.31:40.00, N/P 30, mRNA LNP
[14] = DMG-PEG2000:DSPC:Chol:Lipid 2.50:16.00:16.50:65.00, N/P 18, mRNA LNP
[15] = mRNA LNP, 1.00:4.00:30.00:65.00, N/P 30
[16] = DMG-PEG2000:DSPC:Chol:compound 1.40:11.15:38.95:48.50, N/P 40
[17] = DMG-PEG2000:DSPC:Chol:compound 1.40:11.15:38.95:48.50, N/P 20
[18] = IM, DMG-PEG2000:DSPC:Chol:compound 1.40:11.15:38.95:48.50, N/P 30, Fluc-mRNA
[19] = IV, body, DMG-PEG2000:DSPC:Chol:compound 1.40:11.15:38.95:48.50, N/P 30, Fluc-mRNA
[20] = IV, liver, DMG-PEG2000:DSPC:Chol:compound 1.40:11.15:38.95:48.50, N/P 30
[21] = IV, liver, DMG-PEG2000:DSPC:Chol:compound 1.40:11.15:38.95:48.50, N/P 30, Fluc-mRNA
[22] = IV, lung, DMG-PEG2000:DSPC:Chol:compound 1.40:11.15:38.95:48.50, N/P 30
[23] = IV, lung, DMG-PEG2000:DSPC:Chol:compound 1.40:11.15:38.95:48.50, N/P 30, Fluc-mRNA
[24] = IV, spleen, DMG-PEG2000:DSPC:Chol:compound 1.40:11.15:38.95:48.50, N/P 30
[25] = IV, spleen, DMG-PEG2000:DSPC:Chol:compound 1.40:11.15:38.95:48.50, N/P 30, Fluc-mRNA
[26] = DMG-PEG2000:DSPC:Chol:compound 1.40:11.15:38.95:48.50, N/P 30

CCCCCCCCCCCCNC(=O)C(O)CN(CCN(C)CCN(CC(O)C(=O)NCCCCCCCCCCCC)CC(O)C(=O)NCCCCCCCCCCCC)CC(O)C(=O)NCCCCCCCCCCCC (centres unmarked) [Compound L0264]
IVIS (mice; DMG-PEG2000:DSPC:Chol:Lipid 1.00:4.00:60.00:35.00, N/P 18, IV, body): 9.71 × 10^7 | % of organ targeting (mice; [3]): 13.54% | IVIS (mice; [3]): 4.70 × 10^6 | % of organ targeting (mice; [4]): 34.29% | IVIS (mice; [4]): 1.19 × 10^7 | % of organ targeting (mice; [5]): 52.16% | IVIS (mice; [5]): 1.81 × 10^7 | IVIS (mice; DMG-PEG2000:DSPC:Chol:Lipid 1.71:12.98:45.31:40.00, N/P 30, IM, whole body scan): 3.34 × 10^5 | IVIS (mice; DMG-PEG2000:DSPC:Chol:Lipid 2.50:16.00:16.50:65.00, N/P 18, IV, body): 4.76 × 10^7 | % of organ targeting (mice; [6]): 0.90% | IVIS (mice; [6]): 9.86 × 10^5 | % of organ targeting (mice; [7]): 95.82% | IVIS (mice; [7]): 1.05 × 10^8 | % of organ targeting (mice; [8]): 3.28% | IVIS (mice; [8]): 3.59 × 10^6 | in vivo delivery efficiency as compared to the benchmark compound SM102 (mice; certain formulations, Table 2): superior in vivo delivery efficiency | tissue-targeting specificity (lung vs spleen depending on molar percentage of compound) (mice; certain formulations, Table 2): strong tissue-targeting specificity | % of organ targeting (mice; [9]): 0.40% | IVIS (mice; [9]): 2.69E+06 | % of organ targeting (mice; [10]): 98.90% | IVIS (mice; [10]): 6.68E+08 | % of organ targeting (mice; [11]): 0.71% | IVIS (mice; [11]): 4.76E+06 | IVIS (mice; mRNA LNP, DMG-PEG2000:DSPC:Chol:lipid 1.00:4.00:30.00:65.00, N/P 30, IV, body): 2.87E+08 | PDI [1, 12]: 0.08 ± 0.02 | Particle size [1, 12]: 78.48 ± 0.63 nm | PDI [1, 13]: 0.18 ± 0.00 | Particle size [1, 13]: 85.86 ± 1.26 nm | PDI [1, 14]: 0.15 ± 0.01 | Particle size [1, 14]: 92.82 ± 0.65 nm | PDI [1, 15]: 0.14 | Particle size (nm) [1, 15]: 90.94 nm | Zeta potential (mV) [2, 15]: 12.33 mV

CCCCCCCCCCCCNC(=O)C(O)CN(CCCN(CCCN(CC(O)C(=O)NCCCCCCCCCCCC)CC(O)C(=O)NCCCCCCCCCCCC)CC(O)C[N+](C)(C)C)CC(O)C(=O)NCCCCCCCCCCCC (centres unmarked) [Compound L0302]
IVIS (mice; IM, DMG-PEG2000:DSPC:Chol:compound 1.40:11.15:38.95:48.50, N/P 40, Fluc-mRNA): 6.87E+05 | IVIS (mice; IV, body, DMG-PEG2000:DSPC:Chol:compound 1.40:11.15:38.95:48.50, N/P 40, Fluc-mRNA): 4.41E+06 | % of organ targeting (mice; IV, liver, DMG-PEG2000:DSPC:Chol:compound 1.40:11.15:38.95:48.50, N/P 40): 1.31% | IVIS (mice; IV, liver, DMG-PEG2000:DSPC:Chol:compound 1.40:11.15:38.95:48.50, N/P 40, Fluc-mRNA): 2.05E+05 | % of organ targeting (mice; IV, lung, DMG-PEG2000:DSPC:Chol:compound 1.40:11.15:38.95:48.50, N/P 40): 97.12% | IVIS (mice; IV, lung, DMG-PEG2000:DSPC:Chol:compound 1.40:11.15:38.95:48.50, N/P 40, Fluc-mRNA): 1.52E+07 | % of organ targeting (mice; IV, spleen, DMG-PEG2000:DSPC:Chol:compound 1.40:11.15:38.95:48.50, N/P 40): 1.57% | IVIS (mice; IV, spleen, DMG-PEG2000:DSPC:Chol:compound 1.40:11.15:38.95:48.50, N/P 40, Fluc-mRNA): 2.47E+05 | PDI [1, 16]: 0.21 | Particle size (nm) [1, 16]: 132.07 nm | Zeta potential (mV) [2, 16]: 16.93 mV

CCCCCCCCCCOC(=O)C(O)CN(CCCCCN(CC(O)C(=O)OCCCCCCCCCC)CC(O)C(=O)OCCCCCCCCCC)CC(O)C(=O)OCCCCCCCCCC (centres unmarked) [Compound L0318]
IVIS (mice; IM, DMG-PEG2000:DSPC:Chol:compound 1.40:11.15:38.95:48.50, N/P 20, Fluc-mRNA): 5.83E+05 | IVIS (mice; IV, organ not given, DMG-PEG2000:DSPC:Chol:compound 1.40:11.15:38.95:48.50, N/P 20, Fluc-mRNA): 2.09E+05 | PDI [1, 17]: 0.25 | Particle size (nm) [1, 17]: 571.13 nm | Zeta potential (mV) [2, 17]: 11.23 mV

CCCCCCCCCCNC(=O)C(O)CN(CCCN(CCCN(CC(O)C(=O)NCCCCCCCCCC)CC(O)C(=O)NCCCCCCCCCC)C(CO)CO)CC(O)C(=O)NCCCCCCCCCC (centres unmarked) [Compound L0287]
IVIS (mice; [18]): 1.81E+06 | IVIS (mice; [19]): 1.89E+07 | % of organ targeting (mice; [20]): 34.55% | IVIS (mice; [21]): 3.26E+06 | % of organ targeting (mice; [22]): 25.98% | IVIS (mice; [23]): 2.45E+06 | % of organ targeting (mice; [24]): 39.46% | IVIS (mice; [25]): 3.72E+06 | PDI [1, 26]: 0.18 | Particle size (nm) [1, 26]: 137.37 nm | Zeta potential (mV) [2, 26]: 14.13 mV

CCCC/C=C\CCOCOCCCCOC(=O)C(O)CN(CCN(C)CCN(CC(O)C(=O)OCCCCOCOCC/C=C\CCCC)CC(O)C(=O)OCCCCOCOCC/C=C\CCCC)CC(O)C(=O)OCCCCOCOCC/C=C\CCCC (centres unmarked) [Compound L0335]
IVIS (mice; [18]): 1.99E+06 | IVIS (mice; [19]): 9.08E+07 | % of organ targeting (mice; [20]): 37.57% | IVIS (mice; [21]): 1.92E+07 | % of organ targeting (mice; [22]): 2.72% | IVIS (mice; [23]): 1.39E+06 | % of organ targeting (mice; [24]): 59.71% | IVIS (mice; [25]): 3.05E+07 | PDI [1, 26]: 0.19 | Particle size (nm) [1, 26]: 110.13 nm | Zeta potential (mV) [2, 26]: 14.07 mV
